From patent US9833497B2, “Human originated EGF domain proteins and use of the same” (CHENGDU SOURCEBIO LIMITED-LIABILITY COMPANY, priority 2013, dated 2017)

What was measured:
Format in all cases: cell-based
[1] = test system: Proteus mirabilis; assay: MIC against Gram-negative bacteria: Proteus mirabilis; conditions: 5×10^5 CFU/mL
Summary of the method: (§1)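 Broth microdilution, LB medium, final inoculum 5×10^5 CFU/mL from McFarland 0.5 cultures. Recombinant human EGF domain proteins tested in two-fold steps, n=3. MIC: lowest concentration, no growth.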

[2] = test system: E. coli DH5α; assay: Antibacterial activity: MIC and growth curve against E. coli DH5α in 96-well plate; conditions: minimal inhibitory concentration against E. coli DH5α; 96-well plate, 5×10^5 CFU/mL, 37° C., judged after 8 h
Summary of the method: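 Log-phase DH5α (OD600 about 0.5, 37° C, 185 rpm in LB) was pelleted, resuspended in fresh LB and seeded at 5×10^5 CFU/mL with recombinant protein at 50, 25 and 12.5 μg/mL (two-fold series), in triplicate. Plates were shaken at 175 rpm, 37° C, and OD600 was read every 30 min. MIC was the lowest concentration with no growth.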

[3] = test system: Moraxella catarrhalis; assay: MIC against Gram-negative bacteria: Moraxella catarrhalis; conditions: 5×10^5 CFU/mL
Summary of the method: as §1

[4] = test system: Enterobacter cloacae; assay: MIC against Gram-negative bacteria: Enterobacter cloacae; conditions: 5×10^5 CFU/mL
Summary of the method: as §1

[5] = test system: Serratia marcescens; assay: MIC against Gram-negative bacteria: Serratia marcescens; conditions: 5×10^5 CFU/mL
Summary of the method: as §1

[6] = test system: Klebsiella pneumonia; assay: MIC against Gram-negative bacteria: Klebsiella pneumonia; conditions: 5×10^5 CFU/mL
Summary of the method: as §1

[7] = test system: Pseudomonas aeruginosa; assay: MIC against Gram-negative bacteria: Pseudomonas aeruginosa; conditions: 5×10^5 CFU/mL
Summary of the method: as §1

[8] = test system: Citrobacter diversus; assay: MIC against Gram-negative bacteria: Citrobacter diversus; conditions: 5×10^5 CFU/mL
Summary of the method: as §1

[9] = test system: Aeromonas hydrophila; assay: MIC against Gram-negative bacteria: Aeromonas hydrophila; conditions: 5×10^5 CFU/mL
Summary of the method: as §1

[10] = test system: Proteus vulgaris; assay: MIC against Gram-negative bacteria: Proteus vulgaris; conditions: 5×10^5 CFU/mL
Summary of the method: as §1

[11] = test system: E. coli BL21; assay: MIC against Gram-negative bacteria: E. coli BL21; conditions: 5×10^5 CFU/mL
Summary of the method: as §1

[12] = Proteus mirabilis, 10 h cultivation at 37° C.
[13] = Moraxella catarrhalis, 10 h cultivation at 37° C.
[14] = Enterobacter cloacae, 10 h cultivation at 37° C.
[15] = Serratia marcescens, 10 h cultivation at 37° C.
[16] = Klebsiella pneumonia, 10 h cultivation at 37° C.
[17] = Pseudomonas aeruginosa, 10 h cultivation at 37° C.
[18] = Citrobacter diversus, 10 h cultivation at 37° C.
[19] = Aeromonas hydrophila, 10 h cultivation at 37° C.
[20] = Proteus vulgaris, 10 h cultivation at 37° C.
[21] = E. coli BL21, 10 h cultivation at 37° C.
[22] = 10 h cultivation at 37° C., two-fold serial dilution

PRT730 (NGNSCSDFNGGCTHECVQEPFGAKCLCPLGFLLANDSKTCE; listed as Homo sapiens)
12.5 µg/mL: MIC C. diversus ([8]; 96-well plate, 37° C., 10 h) | MIC P. vulgaris ([10]; 96-well plate, 37° C., 10 h) | MIC E. coli BL21 ([11]; 96-well plate, 37° C., 10 h)
25 µg/mL: MIC [2] | MIC M. catarrhalis ([3]; 96-well plate, 37° C., 10 h) | MIC S. marcescens ([5]; 96-well plate, 37° C., 10 h) | MIC K. pneumonia ([6]; 96-well plate, 37° C., 10 h) | MIC P. aeruginosa ([7]; 96-well plate, 37° C., 10 h) | MIC A. hydrophila ([9]; 96-well plate, 37° C., 10 h)
50 µg/mL: MIC P. mirabilis ([1]; 96-well plate, 37° C., 10 h) | MIC E. cloacae ([4]; 96-well plate, 37° C., 10 h)

PRT689 (DNDECADEEPACEGGRCVNTVGSYHCTCEPPLVLDGSQRRCV; listed as Homo sapiens)
12.5 µg/mL: MIC K. pneumonia ([6]; 96-well plate, 37° C., 10 h) | MIC C. diversus ([8]; 96-well plate, 37° C., 10 h) | MIC P. vulgaris ([10]; 96-well plate, 37° C., 10 h)
50 µg/mL: MIC M. catarrhalis ([3]; 96-well plate, 37° C., 10 h) | MIC P. aeruginosa ([7]; 96-well plate, 37° C., 10 h) | MIC A. hydrophila ([9]; 96-well plate, 37° C., 10 h)
100 µg/mL: MIC [2]
25 µg/mL: MIC P. mirabilis ([1]; 96-well plate, 37° C., 10 h) | MIC E. cloacae ([4]; 96-well plate, 37° C., 10 h) | MIC S. marcescens ([5]; 96-well plate, 37° C., 10 h) | MIC E. coli BL21 ([11]; 96-well plate, 37° C., 10 h)

PRT445 (DVNECELYGQEGRPRLCMHACVNTPGSYRCTCPGGYRTLADGKSCE; listed as Homo sapiens)
50 µg/mL: MIC [2] | MIC against P. aeruginosa ([7]; 96-well plate, 37° C., 10 h) | MIC against C. diversus ([8]; 96-well plate, 37° C., 10 h)
25 µg/mL: MIC against K. pneumonia ([6]; 96-well plate, 37° C., 10 h) | MIC against A. hydrophila ([9]; 96-well plate, 37° C., 10 h)
12.5 µg/mL: MIC against P. mirabilis ([1]; 96-well plate, 37° C., 10 h) | MIC against M. catarrhalis ([3]; 96-well plate, 37° C., 10 h) | MIC against E. cloacae ([4]; 96-well plate, 37° C., 10 h) | MIC against S. marcescens ([5]; 96-well plate, 37° C., 10 h) | MIC against P. vulgaris ([10]; 96-well plate, 37° C., 10 h) | MIC against E. coli BL21 ([11]; 96-well plate, 37° C., 10 h)

PRT1484 (DTDECLGTPCQQRCKNSIGSYKCSCRTGFHLHGNRHSCV; listed as Homo sapiens)
50 µg/mL: MIC against P. mirabilis [1, 12] | MIC [2] | MIC against S. marcescens [5, 15] | MIC against P. aeruginosa [7, 17] | MIC against A. hydrophila [9, 19]
12.5 µg/mL: MIC against M. catarrhalis [3, 13] | MIC against K. pneumonia [6, 16] | MIC against P. vulgaris [10, 20] | MIC against E. coli BL21 [11, 21]
25 µg/mL: MIC against E. cloacae [4, 14] | MIC against C. diversus [8, 18]

PRT1048 (YGKRCVPCKCANHSFCHPSNGTCYCLAGWTGPDCS; listed as Homo sapiens)
12.5 µg/mL: MIC P. mirabilis [1, 22] | MIC [2] | MIC E. cloacae [4, 22] | MIC S. marcescens [5, 22]
50 µg/mL: MIC P. aeruginosa [7, 22] | MIC C. diversus [8, 22] | MIC P. vulgaris [10, 22]
25 µg/mL: MIC M. catarrhalis [3, 22] | MIC K. pneumonia [6, 22] | MIC A. hydrophila [9, 22] | MIC E. coli BL21 [11, 22]

PRT154 (DVDECSLAEKTCVRKNENCYNTPGSYVCVCPDGFEETEDACV; listed as Homo sapiens)
12.5 µg/mL: MIC [2] | MIC (μg/mL) P. aeruginosa ([7]; 10 h cultivation at 37° C.) | MIC (μg/mL) A. hydrophila ([9]; 10 h cultivation at 37° C.) | MIC (μg/mL) P. vulgaris ([10]; 10 h cultivation at 37° C.)
25 µg/mL: MIC (μg/mL) P. mirabilis ([1]; 10 h cultivation at 37° C.) | MIC (μg/mL) S. marcescens ([5]; 10 h cultivation at 37° C.) | MIC (μg/mL) K. pneumonia ([6]; 10 h cultivation at 37° C.) | MIC (μg/mL) C. diversus ([8]; 10 h cultivation at 37° C.)
50 µg/mL: MIC (μg/mL) M. catarrhalis ([3]; 10 h cultivation at 37° C.) | MIC (μg/mL) E. cloacae ([4]; 10 h cultivation at 37° C.) | MIC (μg/mL) E. coli BL21 [11, 21]

PRT1068 (DINECLRFGTCSQLCNNTKGGHLCSCARNFMKTHNTCK; listed as Homo sapiens)
12.5 µg/mL: MIC [2] | MIC M. catarrhalis [3, 22] | MIC K. pneumonia [6, 22]
25 µg/mL: MIC P. mirabilis [1, 22] | MIC E. cloacae [4, 22] | MIC S. marcescens [5, 22] | MIC P. aeruginosa [7, 22] | MIC C. diversus [8, 22]
50 µg/mL: MIC A. hydrophila [9, 22] | MIC P. vulgaris [10, 22] | MIC E. coli BL21 [11, 22]

PRT145 (DVNECEIYSGTPLSCQNGGTCVNTMGSYSCHCPPETYGPQCA; listed as Homo sapiens)
12.5 µg/mL: MIC [2] | MIC (μg/mL) M. catarrhalis ([3]; 10 h cultivation at 37° C.) | MIC (μg/mL) E. cloacae ([4]; 10 h cultivation at 37° C.) | MIC (μg/mL) K. pneumonia ([6]; 10 h cultivation at 37° C.) | MIC (μg/mL) P. aeruginosa ([7]; 10 h cultivation at 37° C.) | MIC (μg/mL) C. diversus ([8]; 10 h cultivation at 37° C.) | MIC (μg/mL) A. hydrophila ([9]; 10 h cultivation at 37° C.) | MIC (μg/mL) P. vulgaris ([10]; 10 h cultivation at 37° C.) | MIC (μg/mL) E. coli BL21 [11, 21]
25 µg/mL: MIC (μg/mL) P. mirabilis ([1]; 10 h cultivation at 37° C.) | MIC (μg/mL) S. marcescens ([5]; 10 h cultivation at 37° C.)

PRT1169 (RDSQCDEATCNNGGTCYDEGDAFKCMCPGGWEGTTCN; listed as Homo sapiens)
25 µg/mL: MIC K. pneumonia [6, 22] | MIC E. coli BL21 [11, 22]
50 µg/mL: MIC [2] | MIC P. aeruginosa [7, 22] | MIC C. diversus [8, 22]
12.5 µg/mL: MIC P. mirabilis [1, 22] | MIC M. catarrhalis [3, 22] | MIC E. cloacae [4, 22] | MIC S. marcescens [5, 22] | MIC A. hydrophila [9, 22] | MIC P. vulgaris [10, 22]

PRT248 (DVDECSARRGGCPQRCVNTAGSYWCQCWEGHSLSADGTLCV; listed as Homo sapiens)
12.5 µg/mL: MIC (μg/mL) P. mirabilis ([1]; 10 h cultivation at 37° C.) | MIC [2] | MIC (μg/mL) E. cloacae ([4]; 10 h cultivation at 37° C.) | MIC (μg/mL) S. marcescens ([5]; 10 h cultivation at 37° C.) | MIC (μg/mL) P. aeruginosa ([7]; 10 h cultivation at 37° C.) | MIC (μg/mL) C. diversus ([8]; 10 h cultivation at 37° C.)
25 µg/mL: MIC (μg/mL) M. catarrhalis ([3]; 10 h cultivation at 37° C.) | MIC (μg/mL) K. pneumonia ([6]; 10 h cultivation at 37° C.) | MIC (μg/mL) A. hydrophila ([9]; 10 h cultivation at 37° C.) | MIC (μg/mL) P. vulgaris ([10]; 10 h cultivation at 37° C.) | MIC (μg/mL) E. coli BL21 [11, 21]

PRT648 (DIDECLNPSTCPDEQCVNSPGSYQCVPCTEGFRGWNGQCL; listed as Homo sapiens)
25 µg/mL: MIC K. pneumonia ([6]; 96-well plate, 37° C., 10 h) | MIC E. coli BL21 ([11]; 96-well plate, 37° C., 10 h)
12.5 µg/mL: MIC P. mirabilis ([1]; 96-well plate, 37° C., 10 h) | MIC [2] | MIC E. cloacae ([4]; 96-well plate, 37° C., 10 h) | MIC S. marcescens ([5]; 96-well plate, 37° C., 10 h) | MIC C. diversus ([8]; 96-well plate, 37° C., 10 h)
50 µg/mL: MIC M. catarrhalis ([3]; 96-well plate, 37° C., 10 h) | MIC P. aeruginosa ([7]; 96-well plate, 37° C., 10 h) | MIC A. hydrophila ([9]; 96-well plate, 37° C., 10 h) | MIC P. vulgaris ([10]; 96-well plate, 37° C., 10 h)

PRT1433 (PPRRCDSNPCFRGVQCTDSRDGFQCGPCPEGYTGNGITCI; listed as Homo sapiens)
25 µg/mL: MIC against P. mirabilis [1, 12] | MIC against A. hydrophila [9, 19]
12.5 µg/mL: MIC [2] | MIC against M. catarrhalis [3, 13] | MIC against E. cloacae [4, 14] | MIC against S. marcescens [5, 15] | MIC against K. pneumonia [6, 16] | MIC against P. aeruginosa [7, 17] | MIC against C. diversus [8, 18] | MIC against P. vulgaris [10, 20] | MIC against E. coli BL21 [11, 21]

PRT1406 (EADCIDPGCSNHGVCIHGECHCSPGWGGSNCE; listed as Homo sapiens)
50 µg/mL: MIC against M. catarrhalis [3, 13] | MIC against S. marcescens [5, 15] | MIC against A. hydrophila [9, 19] | MIC against P. vulgaris [10, 20] | MIC against E. coli BL21 [11, 21]
25 µg/mL: MIC [2] | MIC against E. cloacae [4, 14] | MIC against P. aeruginosa [7, 17]
12.5 µg/mL: MIC against P. mirabilis [1, 12] | MIC against K. pneumonia [6, 16] | MIC against C. diversus [8, 18]
